Measured values published in US20240400546A1, “COMPOUNDS AND USES THEREOF” (JANSSEN PHARMACEUTICA NV, priority 2016, published 2024).
pIC50: −log10 of the molar value.

Molecular target: T1, SCD1 (Homo sapiens, UniProt O00767)
T1 construct: host or cells: S. cerevisiae ole1Δ strain, plasmid pRS316 with TDH3 promoter and CYC1 terminator
T1 sequence (O00767 1-359): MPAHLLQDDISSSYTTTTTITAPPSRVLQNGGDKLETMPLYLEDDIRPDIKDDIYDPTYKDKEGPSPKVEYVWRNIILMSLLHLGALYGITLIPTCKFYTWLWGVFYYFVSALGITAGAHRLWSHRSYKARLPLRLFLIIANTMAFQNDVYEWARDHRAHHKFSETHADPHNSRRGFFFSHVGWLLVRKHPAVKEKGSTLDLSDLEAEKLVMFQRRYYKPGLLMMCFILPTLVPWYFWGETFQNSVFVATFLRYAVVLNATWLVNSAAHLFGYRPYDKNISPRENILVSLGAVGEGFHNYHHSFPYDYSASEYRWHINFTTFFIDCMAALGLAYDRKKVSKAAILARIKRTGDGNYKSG
Assay: Growth inhibition of humanized yeast expressing SCD1 as sole desaturase
Format: cell-based
Conditions: humanized yeast expressing human SCD1
Procedure: Strain ole1Δ (yeast ole1 deletion mutant) was constructed by deleting OLE1 with NAT-MX6 in BY4741, amplifying the deletion cassette from the genomic DNA of the resulting strain with primers flanking the ORF by 1000 bp upstream and downstream, transforming the resulting deletion cassette into W303 pdr1Δ pdr3Δ, and plating transformants on YPD media containing G418 (200 μg/mL) and nourseothricin (100 μg/mL) with 0.01% TWEEN®-20 and 0.5 mM oleic and palmitoleic acids.
The coding sequence of yeast OLE1 was also cloned into this plasmid). These clones were then transformed into the ole1Δ strain and plated on CSM-Ura media (CSM lacking uracil) with 2% glucose (w/v) and independent colonies were isolated and amplified.
All compound profiling experiments were performed using the same basic protocol. Different genetic backgrounds (e.g., gene deletions) or conditions (e.g., addition of oleic and palmitoleic acid) were replaced as indicated below.
Yeast were cultured using standard techniques in complete synthetic media (CSM) and yeast nitrogen base supplemented with 2% (w/v) carbon source (glucose, raffinose, or galactose) to regulate the expression of the toxic disease protein. An initial starter culture was inoculated in 3 mL CSM-Glucose media and incubated overnight in a 30° C. shaker incubator (225 rpm). Saturated morning cultures were then diluted 1:20 in fresh CSM-Raffinose media and grown for 6 h to an OD600 (optical density) of ˜0.4-0.8 at 30° C. with shaking.
Compound administration was performed in two separate steps. First, 15 μL of CSM-Galactose (induces expression of toxic protein) was dispensed into clear 384 well assay plates using a MULTIDROP™ Combi reagent dispenser. […] The cultures described above were then diluted to a 2× concentration (0.03 and 0.08 for alpha-synuclein and ApoE, final OD600 of 0.015 and 0.04) in CSM-Galactose. For wild-type and Ole1/SCD1/SCD5 plasmid-containing strains, the 2× cell density was 0.02. […] For 96-well assays (FIGS. 1A and 1B), compound dilutions in DMSO were generated in 96 well plates and 1 μL was manually pipetted into 96 well clear bottom assay plates.
For experiments using a plasmid-borne copy of Ole1, SCD1, or SCD5 (FIGS. 3B, 6, and 7), media lacking uracil (SX-Ura, where X is glucose, raffinose, or galactose), was used for all steps of the compound profiling protocol to ensure its maintenance throughout the assay.
After yeast delivery, assay plates were incubated under humidified conditions at 30° C. for 24 to 40 h. ApoE4 rescue experiments were stopped at 24 h, aSyn experiments at 40 h, Ole1 at 24 h, and SCD1/SCD5 at 40 h. The growth of yeast was monitored by reading the OD600 of each well using a microplate reader (Perkin Elmer EnVision™).

Compound | pIC50
CC(C)n1ncc2ccc(-c3noc(C4CCN(C(=O)[C@H]5CC(=O)N(c6cccc(C#N)c6)C5)CC4)n3)cc21 [Compound 529] | < 4.35
CC(C)n1ncc2ccc(-c3noc(N4C[C@@H]5CNC[C@H]5C4)n3)cc21 [Compound 530] | < 4.35
CC(C)n1ncc2ccc(-c3noc(C4CCN(C(=O)c5ccccc5F)CC4)n3)cc21 [Compound 532] | < 4.35
CC(C)n1ncc2ccc(-c3noc(C4CCN(C(=O)c5ccc(Cl)cc5F)CC4)n3)cc21 [Compound 533] | < 4.35
CC(C)n1ncc2ccc(N3CC4(CCN(C(=O)c5ccccc5Cl)CC4)C3)cc21 [Compound 534] | < 4.35
CC(=O)N[C@H]1CC[C@H](c2nc(-c3ccc4cnn(C(C)C)c4c3)no2)CC1 [Compound 535] | < 4.35
CC(C)n1ncc2ccc(-c3noc([C@H]4CC[C@@H](N)CC4)n3)cc21 [Compound 536] | < 4.35
CC(C)n1ncc2ccc(-c3noc([C@H]4CC[C@H](NC(=O)OC(C)(C)C)CC4)n3)cc21 [Compound 537] | < 4.35
CC(C)n1ncc2ccc(N3CC4(CCNCC4)C3)cc21 [Compound 538] | < 4.35
COc1ccc(S(=O)(=O)N2CCC(c3nc(-c4ccc5cnn(C(C)C)c5c4)no3)CC2)c(Br)c1 [Compound 539] | < 4.35
CC(C)n1ncc2ccc(-c3noc(C4CCN(S(=O)(=O)c5ccccc5Cl)CC4)n3)cc21 [Compound 540] | < 4.35
CC(C)n1ncc2ccc(-c3noc(C4CCN(C(=O)c5ccc(Cl)c(F)c5)CC4)n3)cc21 [Compound 541] | < 4.35
CC(C)n1ncc2ccc(-c3noc(C4CCN(C(=O)c5ccc(F)cc5)CC4)n3)cc21 [Compound 544] | < 4.35
Cn1ncc2ccc(-c3noc(N4CCN(C(=O)OC(C)(C)C)CC4)n3)cc21 [Compound 545] | < 4.35
CC(C)n1ncc2ccc(-c3nc(C4CCN(C(=O)CC5(C)CC5)CC4)no3)cc21 [Compound 546] | < 4.35
CC(C)n1ncc2ccc(-c3nc(N4CCN(C(=O)OC(C)(C)C)CC4)no3)cc21 [Compound 548] | < 4.35
CC(C)n1ncc2ccc(-c3noc(C4CCN(C(=O)c5nccs5)CC4)n3)cc21 [Compound 549] | < 4.35
COC(=O)N[C@H]1CC[C@@H](c2nc(-c3ccc4c(C)nn(C)c4c3)no2)CC1 [Compound 550] | < 4.35
CC(C)n1ncc2ccc(-c3noc(N4CC5(CCN(C(=O)OC(C)(C)C)CC5)C4)n3)cc21 [Compound 555] | < 4.35
CC(C)n1ncc2ccc(-c3noc(C4CCN(C(=O)CNC(=O)c5cccc(C#N)c5)CC4)n3)cc21 [Compound 556] | < 4.35
O=C(CC1CC1)N1CCC(c2nc(-c3ccc4cnn(C5COC5)c4c3)no2)CC1 [Compound 558] | < 4.35
CC1(CC(=O)N2CCC(c3nc(-c4ccc5cnn(C6COC6)c5c4)no3)CC2)CC1 [Compound 559] | < 4.35
CCc1cnc(N2CCC(c3nc(-c4ccc5c(C)nn(C)c5c4)no3)CC2)cn1 [Compound 560] | < 4.35
COC(=O)N1CCC(c2nc(-c3ccc4cnn(C(F)F)c4c3)no2)CC1 [Compound 561] | < 4.35
O=C(c1ccccc1Cl)N1CCC(c2nc(-c3ccc4cnn(C5COC5)c4c3)no2)CC1 [Compound 562] | < 4.35
O=C(c1ccccc1)N1CCC(c2nc(-c3ccc4cnn(C5COC5)c4c3)no2)CC1 [Compound 564] | < 4.35
CC(C)CS(=O)(=O)N1CCC(c2nc(-c3ccc4cnn(C(C)C)c4c3)no2)CC1 [Compound 565] | < 4.35

Compound | pIC50
COC(=O)N1C[C@H]2CN(c3nc(-c4ccc5cnn(C(C)C)c5c4)no3)C[C@@H]2C1 [Compound 568] | < 4.35
CC(C)n1ncc2ccc(-c3noc(N4C[C@@H]5CN(C(=O)CC(C)(C)C)C[C@H]5C4)n3)cc21 [Compound 569] | < 4.35
COC(=O)N1CCC2(CC1)CN(c1nc(-c3ccc4cnn(C(C)C)c4c3)no1)C2 [Compound 570] | < 4.35
CC(=O)N1CCC2(CC1)CN(c1nc(-c3ccc4cnn(C(C)C)c4c3)no1)C2 [Compound 571] | < 4.35
CC(C)N1C(=O)CCc2ccc(-c3noc(C4CCN(C(=O)OC(C)(C)C)CC4)n3)cc21 [Compound 572] | < 4.35
CC(C)n1ncc2ccc(-c3noc(C4CCN(C(=O)c5cscn5)CC4)n3)cc21 [Compound 573] | < 4.35
CC(C)n1ncc2ccc(-c3noc(C4CCN(C(=O)c5cccs5)CC4)n3)cc21 [Compound 574] | < 4.35
CC(C)n1ncc2ccc(-c3noc(C4CCN(C(=O)c5ccsc5Cl)CC4)n3)cc21 [Compound 575] | < 4.35
CC1(OC(=O)N2CCC(c3nc(-c4ccc5cnn(C6COC6)c5c4)no3)CC2)CC1 [Compound 576] | < 4.35
Cc1nn(C)c2cc(-c3noc([C@@H]4CCN(C(=O)CNC(=O)c5ccccc5)CC4(F)F)n3)ccc12 [Compound 577] | < 4.35
Cc1nn(C)c2cc(-c3noc(C4CCN(c5nc(C(C)C)no5)CC4)n3)ccc12 [Compound 581] | < 4.35
CC(C)n1ncc2ccc(-c3nc(N4CCN(C(=O)c5ccccc5)CC4)no3)cc21 [Compound 582] | < 4.35
CC(C)n1ncc2ccc(-c3noc(C4CCN(C(=O)c5ccc(Cl)cn5)CC4)n3)cc21 [Compound 586] | < 4.35
CC(C)n1ncc2ccc(-c3noc(C4CCN(C(=O)c5ncccc5Cl)CC4)n3)cc21 [Compound 587] | < 4.35
CC(C)n1ncc2ccc(-c3noc(C4CCN(C(=O)c5ccsn5)CC4)n3)cc21 [Compound 588] | < 4.35
CC(C)n1ncc2ccc(-c3noc(C4CCN(C(=O)c5ncc(Cl)s5)CC4)n3)cc21 [Compound 589] | < 4.35
Cc1noc2cc(-c3noc(C4CCN(C(=O)OC5(C)CC5)CC4)n3)ccc12 [Compound 590] | < 4.35
Cc1noc2cc(-c3noc(C4CCN(C(=O)CC5(C)CC5)CC4)n3)ccc12 [Compound 591] | < 4.35
Cc1nn(C)c2cc(-c3noc(C4CCN(C(=O)CC5COC5)CC4)n3)ccc12 [Compound 592] | < 4.35
CC(C)n1ncc2ccc(-c3noc(N4CCN(C(=O)OCC(F)(F)F)CC4)n3)cc21 [Compound 593] | < 4.35
CC(C)n1ncc2ccc(N3CC4(CCN(C(=O)OC5CC5)CC4)C3)cc21 [Compound 594] | < 4.35
COCC(=O)N1CCN(c2nc(-c3ccc4cnn(C(C)C)c4c3)no2)CC1 [Compound 595] | < 4.35
CC(C)n1ncc2ccc(-c3noc([C@H]4CC[C@H](N)CC4)n3)cc21 [Compound 596] | < 4.35
C[C@@H](O)C(=O)N1CCC(c2nc(-c3ccc4cnn(C5COC5)c4c3)no2)CC1 [Compound 597] | < 4.35
O=C(NCC(=O)N1CCC(c2nc(-c3ccc4cnn(C5COC5)c4c3)no2)CC1)c1ccccc1 [Compound 598] | < 4.35
N#Cc1cccc(N2C[C@@H](C(=O)N3CCC(c4nc(-c5ccc6cnn(C7COC7)c6c5)no4)CC3)CC2=O)c1 [Compound 599] | < 4.35
N#Cc1cccc(N2C[C@H](C(=O)N3CCC(c4nc(-c5ccc6cnn(C7COC7)c6c5)no4)CC3)CC2=O)c1 [Compound 600] | < 4.35
